Here are results for 44 compounds from patent US9701672B2, “Dihydropyridinone MGAT2 inhibitors for use in the treatment of metabolic disorders” (BRISTOL-MYERS SQUIBB COMPANY, priority 2014, dated 2017).

The assay deals with human MGAT-2 (Homo sapiens (Human), UniProt Q3SYC2). The assay is described as follows: MGAT LCMS assay (h-MGAT LCMS). It is filed as biochemical. How it is done:
The MGAT enzyme reactions were performed in Corning FALCON® 96-well polypropylene plates, in a total volume of 60 μL of 50 mM potassium phosphate buffer pH 7.4, containing a final concentration of 100 μM 2-oleoylglycerol, 15 μM oleoyl-coenzyme A and 0.0013 μg/μL human or mouse MGAT-2 or 0.0026 μg/μL rat recombinant MGAT-2 membranes expressed in Sf9 cells. Assay plates were run through a fully automated robotics system and shaken for 5 seconds every minute for a total 10 minutes. The reactions were then quenched with 120 μL of ice cold methanol containing 1 μg/mL 1,2-distearoyl-rac-glycerol as the internal standard. Plates were shaken for 2 minutes and spun down to remove protein precipitation. After the spin, samples were transferred to LC/MS compatible PCR plates. For LC/MS analysis, a ThermoFisher Surveyor pump, utilizing a Waters […]® C8, 50×2.1 mm column, was used for the chromatography of enzyme products. The buffer system consists of 0.1% formic acid in water with a mobile phase consisting 0.1% formic acid in methanol. The shallow gradient is 90-100% mobile phase in 0.2 min with a total run time of 2.3 min. The first 0.5 minutes of each injection was diverted to waste to eliminate the presence of phosphate buffer in the enzymatic reaction. The column was run at 0.6 mL/min and a temperature of 65° C. Mass spectrometry analysis of the samples was performed on a ThermoFisher Quantum Triple quad utilizing APCI (+) as the mode of ionization. Data was acquired in Single Ion Monitoring (SIM) mode analyzing Diolein=m/z 603.6 (PRODUCT) and 1,2-distearoyl-rac-glycerol (IS)=m/z 607.6. The ratio of Diolein to internal standard (Peak Area Ratio) is utilized to calculate IC50 values.
“NT” denotes “Not tested”.

Setting [1] is: human MGAT2 membranes expressed in Sf9 cells, 100 μM 2-oleoylglycerol, 15 μM oleoyl-coenzyme A.

Molecules are shown by their SMILES.

Chain of human MGAT-2 (Q3SYC2 whole entry): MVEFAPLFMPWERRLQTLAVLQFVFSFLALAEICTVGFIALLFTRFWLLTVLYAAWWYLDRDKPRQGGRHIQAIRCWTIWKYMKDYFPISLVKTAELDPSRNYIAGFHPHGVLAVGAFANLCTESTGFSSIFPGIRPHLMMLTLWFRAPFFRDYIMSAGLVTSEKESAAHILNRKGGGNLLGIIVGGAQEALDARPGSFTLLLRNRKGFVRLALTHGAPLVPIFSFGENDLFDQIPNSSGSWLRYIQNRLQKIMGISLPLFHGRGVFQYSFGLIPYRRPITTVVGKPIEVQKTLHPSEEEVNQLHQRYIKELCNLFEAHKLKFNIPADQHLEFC

In turn, `CN(C)c1ccc(C2=C(c3nnn[nH]3)C(=O)N[C@@](c3ccc(OCCCC(F)(F)F)cc3)(C(F)(F)F)C2)cn1` [Example 14] showed an IC50 under setting [1] of 0.0721 µM. This lies in the double-digit nanomolar range. Take `CC(C)Cn1ccc(C2=C(c3nnn[nH]3)C(=O)N[C@@](c3ccc(CCCCC(F)(F)F)cc3F)(C(F)(F)F)C2)n1` [Example 50]: the IC50 under setting [1] was 0.0094 µM. `CC(C)n1nc(C2=C(c3nnn[nH]3)C(=O)N[C@@](c3ccc(OCCCCCC(F)(F)F)cc3)(C(F)(F)F)C2)c2ccccc21` [Example 33] returned an IC50 under setting [1] of 0.95 µM. `Cc1cnc(C2=C(c3nnn[nH]3)C(=O)N[C@@](c3ccc(OCCCC(F)(F)F)cc3)(C(F)(F)F)C2)nc1` [Example 38] displayed an IC50 under setting [1] of 0.0343 µM. This IC50 lies about 28-fold lower than the previous one. `CCc1cnc(C2=C(c3nnn[nH]3)C(=O)N[C@@](c3ccc(OCCCC(F)(F)F)cc3F)(C(F)(F)F)C2)s1` [Example 62] had an IC50 under setting [1] of 0.0021 µM.

The compound `O=C1N[C@@](c2ccc(OCCCCCC(F)(F)F)cc2F)(C(F)(F)F)CC(c2cnn(C3CC3)c2)=C1c1nnn[nH]1` [Example 15] had an IC50 under setting [1] of 0.0145 µM. `CCn1ccc(C2=C(c3nnn[nH]3)C(=O)N[C@@](c3ccc(CCCCC(F)(F)F)cc3F)(C(F)(F)F)C2)n1` [Example 49] registered an IC50 under setting [1] of 0.0045 µM. Consider `O=C1N[C@@](c2ccc(CCCCC(F)(F)F)cc2F)(C(F)(F)F)CC(c2ccn(CC3CC3)n2)=C1c1nnn[nH]1` [Example 42], for which the IC50 under setting [1] stood at 0.003 µM.

For `O=C1N[C@@](c2ccc(CCCCC(F)(F)F)cc2)(C(F)(F)F)CC(c2ccn(C3CC3)n2)=C1c1nnn[nH]1` [Example 24], under setting [1], the IC50 was 0.0229 µM.

Under setting [1], `O=C1N[C@@](c2ccc(OCCCC(F)(F)F)cc2)(C(F)(F)F)CC(c2ccn(CC3CC3)n2)=C1c1nnn[nH]1` [Example 19] showed an IC50 of 0.0318 µM. The compound `Cc1csc(C2=C(c3nnn[nH]3)C(=O)N[C@@](c3ccc(OCCCC(F)(F)F)cc3)(C(F)(F)F)C2)c1` [Example 10] came in with an IC50 (human MGAT2) of 2 to 10 µM.

As for `O=C1N[C@@](c2ccc(OCCCCCC(F)(F)F)cc2)(C(F)(F)F)CC(c2ccn(CC3CC3)n2)=C1c1nnn[nH]1` [Example 30], 0.0027 µM corresponded to half-maximal inhibition under setting [1] (IC50).

`O=C1N[C@@](c2ccc(OCCCC(F)(F)F)cc2)(C(F)(F)F)CC(c2ccn(CC3CCC3)n2)=C1c1nnn[nH]1` [Example 21]: the midpoint of inhibition under setting [1], the IC50, lay at 0.135 µM. `O=C1N[C@@](c2ccc(OCCCCCC(F)(F)F)cc2)(C(F)(F)F)CC(c2nc3ccccc3s2)=C1c1nnn[nH]1` [Example 60]: under setting [1], inhibition was half-maximal at 0.137 µM (IC50). `Cc1ccc(C2=C(C#N)C(=O)N[C@@](c3ccc(OCCCCCC(F)(F)F)cc3)(C(F)(F)F)C2)s1` [Example 71, (S)-4-(5-Methylthiophen-2-yl)-2-oxo-6-(4-((6,6,6-trifluorohexyl)oxy)phenyl)-6-(trifluoromethyl)-1,2,5,6-tetrahydropyridine-3-carbonitrile] yielded an IC50 under setting [1] of 0.0315 µM. Under setting [1], `CCc1ccc(C2=C(c3nnn[nH]3)C(=O)N[C@@](c3ccc(OCCCC(F)(F)F)cc3)(C(F)(F)F)C2)s1` [Example 9] showed a concentration for half-maximal inhibition (IC50) of 0.032 µM. `O=C1N[C@@](c2ccc(OCCCC(F)(F)F)cc2)(C(F)(F)F)CC(c2cc3ccccc3s2)=C1c1nnn[nH]1` [Example 7] returned an IC50 under setting [1] of 0.009 µM. Same read-out and setting: the same measure for `CN(C)Cc1ccc(C2=C(c3nnn[nH]3)C(=O)N[C@@](c3ccc(OCCCC(F)(F)F)cc3)(C(F)(F)F)C2)s1` [Example 12]: 0.363 µM; for `N#CC1=C(c2ccc(Cl)s2)C[C@](c2ccc(OCCCC(F)(F)F)cc2)(C(F)(F)F)NC1=O` [Example 68, (S)-4-(5-Chlorothiophen-2-yl)-2-oxo-6-(4-(4,4,4-trifluorobutoxy)phenyl)-6-(trifluoromethyl)-1,2,5,6-tetrahydropyridine-3-carbonitrile]: 0.0302 µM.

As for `CC(C)n1ccc(C2=C(c3nnn[nH]3)C(=O)N[C@@](c3ccc(CCCCC(F)(F)F)cc3)(C(F)(F)F)C2)n1` [Example 23], the IC50 under setting [1] worked out at 0.0021 µM. Consider `O=C1N[C@@](c2ccc(OCCCCCC(F)(F)F)cc2F)(C(F)(F)F)CC(c2ccn(C3CC3)n2)=C1c1nnn[nH]1` [Example 16], for which it took 0.034 µM to reach half-maximal inhibition under setting [1] (IC50).

`CC(C)Cn1ccc(C2=C(c3nnn[nH]3)C(=O)N[C@@](c3ccc(OCCCCCC(F)(F)F)cc3)(C(F)(F)F)C2)n1` [Example 31] registered an IC50 under setting [1] of 0.0619 µM. Compound `COc1cc(OCCCC(F)(F)F)ccc1[C@]1(C(F)(F)F)CC(c2ccc(C3CC3)s2)=C(c2nnn[nH]2)C(=O)N1` [Example 57] registered an IC50 under setting [1] of 0.0014 µM. `O=C1N[C@@](c2ccc(OCCCCCC(F)(F)F)cc2)(C(F)(F)F)CC(c2ccn(C3CC3)n2)=C1c1nnn[nH]1` [Example 25] came in with an IC50 under setting [1] of 0.102 µM. Against the preceding compound, the IC50 is about 73-fold higher. On to `O=C1N[C@@](c2ccc(CCCCC(F)(F)F)cc2)(C(F)(F)F)CC(c2ccn(CC3CC3)n2)=C1c1nnn[nH]1` [Example 22], for which, under setting [1], the IC50 is 0.0012 µM.

In turn, `O=C1N[C@@](c2ccc(OCCCC(F)(F)F)cc2Cl)(C(F)(F)F)CC(c2ncc(C3CC3)s2)=C1c1nnn[nH]1` [Example 64] had an IC50 under setting [1] of 0.0011 µM. On the same count and under the same terms, to `CC(C)n1ccc(C2=C(c3nnn[nH]3)C(=O)N[C@@](c3ccc(CCCCC(F)(F)F)cc3F)(C(F)(F)F)C2)n1` [Example 46] belongs 0.0114 µM. Turning to `O=C1N[C@@](c2ccc(OCCCC(F)(F)F)cc2)(C(F)(F)F)CC(c2ccc(C3CC3)s2)=C1c1nnn[nH]1` [Example 1, (S)-4-(5-Cyclopropylthiophen-2-yl)-3-(1H-tetrazol-5-yl)-6-(4-(4,4,4-trifluorobutoxy)phenyl)-6-(trifluoromethyl)-5,6-dihydropyridin-2(1H)-one], the IC50 under setting [1] was 0.0025 µM. On to `CCc1cnc(C2=C(c3nnn[nH]3)C(=O)N[C@@](c3ccc(OCCCCCC(F)(F)F)cc3F)(C(F)(F)F)C2)s1` [Example 66], for which inhibition under setting [1] was half-maximal at 0.0005 µM (IC50). For the compound `O=C1N[C@@](c2ccc(OCCCC(F)(F)F)cc2F)(C(F)(F)F)CC(c2ncc(C3CC3)s2)=C1c1nnn[nH]1` [Example 59], 0.0014 µM corresponded to half-maximal inhibition under setting [1] (IC50). Same read-out and setting: to `COc1ccc(C2=C(C#N)C(=O)N[C@@](c3ccc(OCCCCC(F)(F)F)cc3)(C(F)(F)F)C2)cn1` [Example 70, (S)-6-Methoxy-2′-oxo-6′-(trifluoromethyl)-6′-(4-((5,5,5-trifluoropentyl)oxy)phenyl)-1′,2′,5′,6′-tetrahydro-[3,4′-bipyridine]-3′-carbonitrile] belongs 0.0323 µM; to `COc1ccc(NC(=O)C2=C(c3ccn(C4CC4)n3)C[C@](c3ccc(OCCCC(F)(F)F)cc3)(C(F)(F)F)NC2=O)cc1` [Example 76, (S)-4-(1-Cyclopropyl-1H-pyrazol-3-yl)-N-(4-methoxyphenyl)-2-oxo-6-(4-(4,4,4-trifluorobutoxy)phenyl)-6-(trifluoromethyl)-1,2,5,6-tetrahydropyridine-3-carboxamide], 0.0042 µM; to `Cc1ccsc1C1=C(c2nnn[nH]2)C(=O)N[C@@](c2ccc(OCCCC(F)(F)F)cc2)(C(F)(F)F)C1` [Example 11], 0.873 µM. `CC(C)(C)n1ccc(C2=C(c3nnn[nH]3)C(=O)N[C@@](c3ccc(OCCCCCC(F)(F)F)cc3)(C(F)(F)F)C2)n1` [Example 27] displayed an IC50 under setting [1] of 0.185 µM.

In the case of `CC(C)Cn1ccc(C2=C(c3nnn[nH]3)C(=O)N[C@@](c3ccc(OCCCC(F)(F)F)cc3F)(C(F)(F)F)C2)n1` [Example 51], the IC50 under setting [1] was 0.0974 µM. Same read-out and setting: to `CN(C)c1ccc(C2=C(c3nnn[nH]3)C(=O)N[C@@](c3ccc(OCCCC(F)(F)F)cc3)(C(F)(F)F)C2)nc1` [Example 28] belongs 0.0176 µM.

On to `O=C1N[C@@](c2ccc(OCCCC(F)(F)F)cc2)(C(F)(F)F)CC(c2ccc(Cl)s2)=C1c1nnn[nH]1` [Example 3], for which the IC50 under setting [1] was 0.37 µM. Compared with the last compound, the IC50 is about 21-fold higher. `N#CC1=C(c2ccc(C3CC3)s2)C[C@](c2ccc(OCCCC(F)(F)F)cc2)(C(F)(F)F)NC1=O` [Example 74, (S)-4-(5-Cyclopropylthiophen-2-yl)-2-oxo-6-(4-(4,4,4-trifluorobutoxy)phenyl)-6-(trifluoromethyl)-1,2,5,6-tetrahydropyridine-3-carbonitrile]: the IC50 under setting [1] worked out at 0.015 µM. On the same count and under the same terms, the same measure for `CCc1ccc(C2=C(c3nnn[nH]3)C(=O)N[C@@](c3ccc(OCCCCCC(F)(F)F)cc3)(C(F)(F)F)C2)s1` [Example 58]: 0.0022 µM; for `O=C1N[C@@](c2ccc(OCCCC(F)(F)F)cc2)(C(F)(F)F)CC(c2cnn(C3CC3)c2)=C1c1nnn[nH]1` [Example 18]: 0.0245 µM; for `COc1ccc(C2=C(C#N)C(=O)N[C@@](c3ccc(OCCCCCC(F)(F)F)cc3)(C(F)(F)F)C2)cn1` [Example 72, (S)-6-Methoxy-2′-oxo-6′-(4-((6,6,6-trifluorohexyl)oxy)phenyl)-6′-(trifluoromethyl)-1′,2′,5′,6′-tetrahydro-[3,4′-bipyridine]-3′-carbonitrile]: 0.0103 µM.

In turn, `CC(C)n1ccc(C2=C(c3nnn[nH]3)C(=O)N[C@@](c3ccc(OCCCCCC(F)(F)F)cc3)(C(F)(F)F)C2)n1` [Example 26] yielded a half-maximal inhibitory concentration (IC50) under setting [1] of 0.0437 µM.

Consider `CCCCCCC#C[C@]1(C(F)(F)F)CC(c2ccc(Cl)s2)=C(c2nnn[nH]2)C(=O)N1` [Example 5], for which the IC50 under setting [1] was determined as 0.0078 µM. On the same count and under the same terms, the same measure for `CN(C)c1cnc(C2=C(c3nnn[nH]3)C(=O)N[C@@](c3ccc(OCCCC(F)(F)F)cc3)(C(F)(F)F)C2)s1` [Example 35]: 0.0115 µM.
